Data as given in patent publication US20230150974A1 (Foghorn Therapeutics Inc., priority 2020, published 2023).

Legend:
HiBiT-BRM = biological target: T1, HiBiT-BRM (Homo sapiens, UniProt P51531); assay: HiBiT-BRM cell-based degradation assay (Nano-Glo HiBiT Lytic Detection); details: HeLa cells expressing HiBiT-BRM, 24 h; for DC50: read-out: BRM HiBit Degradation IC50
T1 construct: expressed in transfected cells
In short: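 HeLa cells stably expressing HiBiT-tagged BRM were treated for 24 h, then lysed with LgBiT-containing Nano-Glo reagent and luminescence read. % degradation scaled between DMSO (high control) and 2 μM reference BRM/BRG1 degrader (low control).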

HiBit-BRG1 = biological target: T2, HiBit-BRG1 (Homo sapiens, UniProt P51532); assay: HiBit-BRG1 cell-based degradation assay (Nano-Glo HiBiT Lytic Detection); details: HeLa cells expressing HiBit-BRG1 and LgBit, 24 h; for DC50: read-out: BRG1 HiBit Degradation IC50; for Dmax: read-out: BRG1 HiBit Degradation Maximum (%)
T2 construct: expressed in transfected cells
T2 sequence (P51532 whole entry): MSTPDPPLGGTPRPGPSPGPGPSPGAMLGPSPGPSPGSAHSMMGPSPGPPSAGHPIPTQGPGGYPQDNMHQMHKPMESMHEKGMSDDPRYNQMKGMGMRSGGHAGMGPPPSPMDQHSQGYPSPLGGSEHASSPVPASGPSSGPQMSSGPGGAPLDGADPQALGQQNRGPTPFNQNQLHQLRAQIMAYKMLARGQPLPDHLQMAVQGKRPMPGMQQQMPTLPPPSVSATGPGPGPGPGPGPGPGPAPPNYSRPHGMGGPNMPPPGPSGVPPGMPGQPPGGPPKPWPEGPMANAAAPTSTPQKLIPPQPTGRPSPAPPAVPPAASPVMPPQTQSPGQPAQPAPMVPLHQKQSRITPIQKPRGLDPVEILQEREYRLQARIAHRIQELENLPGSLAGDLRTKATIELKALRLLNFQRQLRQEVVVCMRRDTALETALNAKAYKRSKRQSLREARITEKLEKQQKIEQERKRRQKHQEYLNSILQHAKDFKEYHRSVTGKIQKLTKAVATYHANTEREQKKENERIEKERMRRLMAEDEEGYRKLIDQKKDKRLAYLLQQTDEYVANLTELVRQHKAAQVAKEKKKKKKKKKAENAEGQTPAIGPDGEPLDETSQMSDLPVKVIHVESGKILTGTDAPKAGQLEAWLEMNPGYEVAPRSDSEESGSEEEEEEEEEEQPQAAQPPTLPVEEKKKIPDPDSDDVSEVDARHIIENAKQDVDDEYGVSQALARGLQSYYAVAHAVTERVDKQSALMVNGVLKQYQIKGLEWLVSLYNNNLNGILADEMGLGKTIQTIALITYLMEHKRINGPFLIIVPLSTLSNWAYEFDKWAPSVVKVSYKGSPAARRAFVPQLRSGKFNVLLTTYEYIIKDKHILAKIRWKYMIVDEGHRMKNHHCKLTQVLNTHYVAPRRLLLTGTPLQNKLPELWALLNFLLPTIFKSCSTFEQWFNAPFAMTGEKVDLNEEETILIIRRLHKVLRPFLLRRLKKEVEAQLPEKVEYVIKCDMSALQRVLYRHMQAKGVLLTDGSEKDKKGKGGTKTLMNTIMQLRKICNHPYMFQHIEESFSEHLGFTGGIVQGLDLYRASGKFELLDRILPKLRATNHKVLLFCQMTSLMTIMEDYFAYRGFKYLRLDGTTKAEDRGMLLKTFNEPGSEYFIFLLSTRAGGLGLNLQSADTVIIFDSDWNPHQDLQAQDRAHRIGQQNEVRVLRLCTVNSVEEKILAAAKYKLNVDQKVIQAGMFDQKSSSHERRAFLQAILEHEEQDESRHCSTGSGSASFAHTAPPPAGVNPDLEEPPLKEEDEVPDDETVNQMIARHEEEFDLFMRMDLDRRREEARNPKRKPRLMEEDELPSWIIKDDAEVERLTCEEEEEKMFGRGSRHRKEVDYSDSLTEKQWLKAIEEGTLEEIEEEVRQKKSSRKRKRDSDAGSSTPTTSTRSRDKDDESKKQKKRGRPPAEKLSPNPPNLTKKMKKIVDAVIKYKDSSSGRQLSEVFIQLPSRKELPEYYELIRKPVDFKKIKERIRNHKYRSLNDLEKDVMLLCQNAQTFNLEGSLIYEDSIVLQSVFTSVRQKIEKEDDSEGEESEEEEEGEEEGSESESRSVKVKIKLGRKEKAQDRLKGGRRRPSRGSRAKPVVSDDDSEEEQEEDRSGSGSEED
In short: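 Stable HeLa line co-expressing HiBit-BRG1 and LgBit, 5000 cells/well, treated 24 h in a tissue culture incubator. Lysed with Nano-Glo HiBiT lytic reagent, luminescence read. % degradation normalized to DMSO (high control) and 2 μM reference BRM/BRG1 degrader (low control).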

T1 sequence (P51531 whole entry): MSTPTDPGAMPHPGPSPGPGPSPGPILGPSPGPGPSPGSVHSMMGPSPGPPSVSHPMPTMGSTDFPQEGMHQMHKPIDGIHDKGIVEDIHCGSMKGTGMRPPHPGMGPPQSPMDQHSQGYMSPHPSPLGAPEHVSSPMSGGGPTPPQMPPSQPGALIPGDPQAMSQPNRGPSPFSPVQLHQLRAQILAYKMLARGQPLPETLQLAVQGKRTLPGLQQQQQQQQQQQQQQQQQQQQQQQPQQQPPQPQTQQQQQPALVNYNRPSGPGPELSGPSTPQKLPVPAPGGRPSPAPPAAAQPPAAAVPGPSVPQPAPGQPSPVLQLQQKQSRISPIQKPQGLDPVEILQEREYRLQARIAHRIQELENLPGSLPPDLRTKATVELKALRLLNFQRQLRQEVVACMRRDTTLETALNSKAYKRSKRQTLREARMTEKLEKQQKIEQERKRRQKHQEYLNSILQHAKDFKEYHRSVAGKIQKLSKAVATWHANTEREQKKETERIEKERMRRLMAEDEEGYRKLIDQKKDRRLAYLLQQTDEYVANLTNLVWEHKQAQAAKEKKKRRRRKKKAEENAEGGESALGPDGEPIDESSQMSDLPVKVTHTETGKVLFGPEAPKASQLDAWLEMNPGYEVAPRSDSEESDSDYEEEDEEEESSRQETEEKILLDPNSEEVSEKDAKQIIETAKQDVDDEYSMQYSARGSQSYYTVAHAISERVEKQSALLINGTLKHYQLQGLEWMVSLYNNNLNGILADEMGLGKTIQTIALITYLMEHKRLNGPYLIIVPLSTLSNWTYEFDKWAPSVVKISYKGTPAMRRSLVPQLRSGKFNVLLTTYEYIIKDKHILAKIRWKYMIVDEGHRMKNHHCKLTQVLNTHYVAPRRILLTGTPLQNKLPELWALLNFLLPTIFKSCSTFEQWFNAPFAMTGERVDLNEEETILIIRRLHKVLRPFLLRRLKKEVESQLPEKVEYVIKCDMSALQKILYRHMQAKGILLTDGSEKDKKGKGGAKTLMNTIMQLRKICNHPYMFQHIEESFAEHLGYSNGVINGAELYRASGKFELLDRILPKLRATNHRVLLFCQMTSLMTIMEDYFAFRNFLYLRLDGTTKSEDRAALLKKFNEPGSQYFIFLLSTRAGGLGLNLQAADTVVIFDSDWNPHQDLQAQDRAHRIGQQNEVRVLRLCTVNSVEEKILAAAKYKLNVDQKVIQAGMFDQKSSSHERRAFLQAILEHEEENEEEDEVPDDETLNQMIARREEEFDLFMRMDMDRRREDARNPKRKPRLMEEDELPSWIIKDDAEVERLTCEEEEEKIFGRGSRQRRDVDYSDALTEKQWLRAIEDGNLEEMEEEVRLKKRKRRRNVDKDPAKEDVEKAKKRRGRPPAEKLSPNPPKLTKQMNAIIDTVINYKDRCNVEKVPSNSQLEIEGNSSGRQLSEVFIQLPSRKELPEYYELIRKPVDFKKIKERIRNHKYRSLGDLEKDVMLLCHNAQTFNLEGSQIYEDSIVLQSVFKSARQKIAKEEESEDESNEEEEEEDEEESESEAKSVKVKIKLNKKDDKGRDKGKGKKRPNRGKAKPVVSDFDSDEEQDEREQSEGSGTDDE

DC50 (HiBiT-BRM) [nM]	DC50 (HiBit-BRG1) [nM]	Dmax (HiBit-BRG1) [%]	SMILES	BRM HiBit Degradation Maximum (%) (HiBiT-BRM)
> 1000	> 1000	< 50	Cc1ncsc1-c1ccc(CNC(=O)[C@@H]2C[C@@H](O)CN2C(=O)[C@@H](NC(=O)CN2CCC(OC3CCN(CCC(=O)NCc4ccc(CCOc5cc(-c6ccccc6O)nnc5N)cc4)CC3)CC2)C(C)(C)C)cc1 [Compound 244, (2S,4R)-1-((S)-2-(2-(4-((1-(3-((4-(2-((3-amino-6-(2-hydroxyphenyl)pyridazin-4-yl)oxy)ethyl)benzyl)amino)-3-oxopropyl)piperidin-4-yl)oxy)piperidin-1-yl)acetamido)-3,3-dimethylbutanoyl)-4-hydroxy-N-(4-(4-methylthiazol-5-yl)benzyl)pyrrolidine-2-carboxamide]	A (“A” indicates maximum degradation ≥75%)
> 1000	> 1000	< 50	Cc1ncsc1-c1ccc(CNC(=O)[C@@H]2C[C@@H](O)CN2C(=O)[C@@H](NC(=O)CCN2CCC(OC3CN(C(=O)c4ccc(CCOc5cc(-c6ccccc6O)nnc5N)cc4)C3)CC2)C(C)(C)C)cc1 [Compound 245, (2S,4R)-1-((S)-2-(3-(4-((1-(4-(2-((3-amino-6-(2-hydroxyphenyl)pyridazin-4-yl)oxy)ethyl)benzoyl)azetidin-3-yl)oxy)piperidin-1-yl)propanamido)-3,3-dimethylbutanoyl)-4-hydroxy-N-(4-(4-methylthiazol-5-yl)benzyl)pyrrolidine-2-carboxamide]	B (“B” indicates maximum degradation ≥50%)
> 10	> 1000	< 50	Cc1ncsc1-c1ccc([C@H](C)NC(=O)[C@@H]2C[C@@H](O)CN2C(=O)[C@@H](NC(=O)CCCCCCCCCCCCCC(=O)NCc2ccc(CCOc3cc(-c4ccccc4O)nnc3N)cc2)C(C)C)cc1 [Compound 246, N1-(4-(2-((3-amino-6-(2-hydroxyphenyl)pyridazin-4-yl)oxy)ethyl)benzyl)-N15-((S)-1-((2S,4R)-4-hydroxy-2-(((S)-1-(4-(4-methylthiazol-5-yl)phenyl)ethyl)carbamoyl)pyrrolidin-1-yl)-3-methyl-1-oxobutan-2-yl)pentadecanediamide]	A (“A” indicates maximum degradation ≥75%)
> 10	> 1000	< 50	Cc1ncsc1-c1ccc([C@H](C)NC(=O)[C@@H]2C[C@@H](O)CN2C(=O)[C@@H](NC(=O)CCCCCCCCCCC(=O)NCc2ccc(CCOc3cc(-c4ccccc4O)nnc3N)cc2)C(C)(C)C)cc1 [Compound 247, N1-(4-(2-((3-amino-6-(2-hydroxyphenyl)pyridazin-4-yl)oxy)ethyl)benzyl)-N12-((S)-1-((2S,4R)-4-hydroxy-2-(((S)-1-(4-(4-methylthiazol-5-yl)phenyl)ethyl)carbamoyl)pyrrolidin-1-yl)-3,3-dimethyl-1-oxobutan-2-yl)dodecanediamide]	A (“A” indicates maximum degradation ≥75%)

SMILES	DC50 (HiBiT-BRM) [nM]	DC50 (HiBit-BRG1) [nM]	Dmax (HiBit-BRG1) [%]	BRM HiBit Degradation Maximum (%) (HiBiT-BRM)
Cc1ncsc1-c1ccc(CNC(=O)[C@@H]2C[C@@H](O)CN2C(=O)[C@@H](NC(=O)CN2CCC(O[C@H]3C[C@H](Oc4cc(N5[C@@H]6CC[C@H]5CN(c5cc(-c7ccccc7O)nnc5N)C6)ccn4)C3)CC2)C(C)(C)C)cc1 [Compound 243, (2S,4R)-1-((2S)-2-(2-(4-((1r,3S)-3-((4-(3-(3-amino-6-(2-hydroxyphenyl)pyridazin-4-yl)-3,8-diazabicyclo[3.2.1]octan-8-yl)pyridin-2-yl)oxy)cyclobutoxy)piperidin-1-yl)acetamido)-3,3-dimethylbutanoyl)-4-hydroxy-N-(4-(4-methylthiazol-5-yl)benzyl)pyrrolidine-2-carboxamide, tri-formic acid]	< 10	> 10	> 75	A (“A” indicates maximum degradation ≥75%)
